Literature values, collected in patent publication US6503927B1, “Amorphous paroxetine composition” (Pentech Pharmaceuticals, Inc., priority 1999, dated 2003).
Where a name gives a salt, the structure may show the parent alone.

Conditions: reported in U.S. Pat. No. 4,721,723 (Barnes et al.) and U.S. Pat. No. 5,672,612 (Ronsen et al.)

hygroscopicity of the solid: undesirably hygroscopic
Compound: Fc1ccc([C@@H]2CCNC[C@H]2COc2ccc3c(c2)OCO3)cc1 [amorphous, paroxetine hydrochloride, paroxetine hydrochloride]
